Assay results as given in PMC12041767 (Journal of immunology (Baltimore, Md. : 1950), 2025).
Where two headings read alike, the source gives them in different places.

Legend:
HLA-E*01:03 = HLA-E*01:03 (Homo sapiens, UniProt P13747); type: binding; conditions: tested at least two times, median, Figure 1
NKG2A/CD94 [1] = target: T1, NKG2A/CD94 (Homo sapiens, UniProt P26715+Q13241); type: binding
TCR KK50.4 [2] = assay: HLA-E*01:03 tetramer (TM) staining of TCR KK50.4 transduced Jurkat cells; conditions: for Interaction of thermal exchanged HLA-E TM/peptide complex with TCR KK50.4, in words: thermal exchanged HLA-E*01:03 TM staining on Jurkat TCR KK50.4 cells, tested once, Figure 2C
TCR 6 = assay: HLA-E*01:03 tetramer (TM) staining of TCR 6 transduced Jurkat cells; conditions: for Interaction of thermal exchanged HLA-E TM/peptide complex with TCR 6, in words: thermal exchanged HLA-E*01:03 TM staining on Jurkat TCR 6 cells, tested once, Figure 2C-E
NKG2A/CD94 [3] = target: T1, NKG2A/CD94; conditions: cited from earlier work
primary NKG2C+ NK cells = conditions: stimulation with HLA-E/peptide presenting cells, compared to other position 8 variants from clinical CMV isolates; cited from earlier work
TCR KK50.4 [4] = type: cell-based; conditions: 100 μM peptide, median, n=3 with two technical replicates, Figure 3B, C
[5] = S/P relative to positive control […] or […]
[6] = conventional HLA-E TMs folded with wildtype peptide, Figure 2B
[7] = UV exchange 1 hr at 4°C, ELISA absorbance 450 nm

T1 sequence (P26715 whole entry): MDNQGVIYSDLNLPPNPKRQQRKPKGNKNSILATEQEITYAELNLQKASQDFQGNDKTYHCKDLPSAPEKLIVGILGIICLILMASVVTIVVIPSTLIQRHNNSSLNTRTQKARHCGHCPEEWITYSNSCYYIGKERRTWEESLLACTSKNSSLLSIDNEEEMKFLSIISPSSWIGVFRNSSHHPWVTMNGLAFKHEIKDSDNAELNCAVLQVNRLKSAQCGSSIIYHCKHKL
T1 sequence (Q13241 whole entry): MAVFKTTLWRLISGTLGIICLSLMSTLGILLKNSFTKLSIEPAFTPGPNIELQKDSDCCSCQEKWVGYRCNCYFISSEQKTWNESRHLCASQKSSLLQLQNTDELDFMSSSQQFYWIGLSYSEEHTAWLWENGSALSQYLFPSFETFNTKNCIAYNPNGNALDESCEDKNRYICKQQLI

## VLAPRDLLL [VLAPRTLLL Asp 6]
HLA-E*01:03; [5]
  Peptide binding affinity for HLA-E*01:03 (signal to positive, S/P, ratio), in words: could not bind

## VLAPRPLLL [VLAPRTLLL Pro 6]
HLA-E*01:03; [5]
  Peptide binding affinity for HLA-E*01:03 (signal to positive, S/P, ratio), in words: strong binders (key: The S/P thresholds to define binders or strong binders are 0.08 and 0.18, respectively; The S/P thresholds to define binders or strong binders are 0.08 and 0.18, respectively)

## VLAPRRLLL [VLAPRTLLL Arg 6]
HLA-E*01:03; [5]
  Peptide binding affinity for HLA-E*01:03 (signal to positive, S/P, ratio), in words: could not bind

## VLAPRTDLL [VLAPRTLLL Asp 7]
HLA-E*01:03; [5]
  Peptide binding affinity for HLA-E*01:03 (signal to positive, S/P, ratio), in words: could not bind

## VLAPRTLGL [VLAPRTLLL Gly 8]
HLA-E*01:03; [5]
  Peptide binding affinity for HLA-E*01:03 (signal to positive, S/P, ratio), in words: could not bind

## VLAPRTLLA [VLAPRTLLL Ala 9]
HLA-E*01:03; [5]
  Peptide binding affinity for HLA-E*01:03 (signal to positive, S/P, ratio), in words: could not bind

## VLAPRTLLL [reference compound]
NKG2A/CD94 [1]
  Interaction of conventional HLA-E TM with NKG2A/CD94, in words: can interact
TCR KK50.4 [2]; [6]
  Interaction of conventional HLA-E TM with TCR KK50.4, in words: could only interact with the HLA-E/[…] complex
HLA-E*01:03; [5]
  Peptide binding affinity for HLA-E*01:03 (signal to positive, S/P, ratio), in words: high affinity
TCR 6; [6]
  Interaction of conventional HLA-E TM with TCR 6, in words: can interact

## VLAPRTPLL [VLAPRTLLL Pro 7]
HLA-E*01:03; [5]
  Peptide binding affinity for HLA-E*01:03 (signal to positive, S/P, ratio), in words: strong binders (key: The S/P thresholds to define binders or strong binders are 0.08 and 0.18, respectively; The S/P thresholds to define binders or strong binders are 0.08 and 0.18, respectively)

## VLAPRTRLL [VLAPRTLLL Arg 7]
HLA-E*01:03; [5]
  Peptide binding affinity for HLA-E*01:03 (signal to positive, S/P, ratio), in words: could not bind

## VMAARTLIL
TCR KK50.4 [2]
  Interaction of thermal exchanged HLA-E TM/peptide complex with TCR KK50.4, in words: interacted

## VMAPRALIL
TCR 6
  Interaction of thermal exchanged HLA-E TM/peptide complex with TCR 6, in words: interacted

## VMAPRPLIL
HLA-E*01:03; [7]
  Peptide binding affinity for HLA-E*01:03 (signal to positive, S/P, ratio), in words: strong binders (The S/P thresholds to define binders or strong binders are 0.08 and 0.18, respectively)
TCR 6
  Interaction of thermal exchanged HLA-E TM/peptide complex with TCR 6, in words: interacted

## VMAPRTLFL
NKG2A/CD94 [3]
  Level of NKG2A/CD94 signaling among VL9-peptides: highest level of NKG2A/CD94 signaling
Primary NKG2C+ NK cells
  CD107a expression and cytokine secretion of primary NKG2C+ NK cells: highest level of CD107a expression and cytokine secretion

## VMAPRTLIF
TCR KK50.4 [4]
  TCR KK50.4 triple reporter activation, in words: still induced TCR KK50.4 activation

## VMAPRTLIW
TCR KK50.4 [2]
  Interaction of thermal exchanged HLA-E TM/peptide complex with TCR KK50.4, in words: recognized by TCR KK50.4
TCR 6
  Interaction of thermal exchanged HLA-E TM/peptide complex with TCR 6, in words: not TCR 6

## VMAPRTPIL
HLA-E*01:03; [7]
  Peptide binding affinity for HLA-E*01:03 (signal to positive, S/P, ratio), in words: strong binders (The S/P thresholds to define binders or strong binders are 0.08 and 0.18, respectively)
